From US4189484A, “Antihypertensive quinazoline derivatives” (priority 1977, dated 1980)

Tests used:
[1] = tested on: spontaneously hypertensive rats (SHR); test: Antihypertensive effect, oral administration to spontaneously hypertensive rats (mean blood pressure and heart rate); type: in vivo, rat; conditions: for Changes in blood pressure (BP) after oral administration / Changes in heart rate (HR) after oral administration: Table 2, male SHR, n=5, p.o.; for Changes in average blood pressures after administration: Table 3; for Change in blood pressure after 3 hrs. from administration: Table 1
Protocol: Antihypertensive effect was determined by oral administration of the test compound to spontaneously hypertensive rats (hereinafter referred to as SHR).
These SHR were anesthetized with ether and chronically embedded with a cannula for determination of blood pressure so that one end of the said cannula may be placed in abdominal aorta and the other end thereof may be projected out of dorsal neck. When rats regained their body weight before operation in more than 1 week from operation, the test compound was given. Determination was made by measuring a mean blood pressure and a heart rate under unanesthetized and unrestrained conditions with the cannula connected to an electronic recording system. The test compound was suspended in a 1% tragacanth gum solution to make up a concentration so as to be a volume of 5 ml./kg. and then orally given.

ICR strain male mice = test: in vivo; type: in vivo; conditions: for No. of deceased animal: 8 animals per group, 1 week
Protocol: (§1) ICR strain male mice, weighing 30-35 g., were deprived of food for 6 hours (water ad libitum) and then used in the experiment. Each group consisted of 8 animals. The test compound was suspended in a 1% tragacanth gum solution so as to be a volume of 40 ml./kg. and orally given. After administration, numbers of deceased animals, changes in body weight and other general states were observed or determined over 1 week.
(§2) Survived mice were autopsyed.

Adrenergic α-receptor = Adrenergic α-receptor blocking effect (inhibition of hypertensive action of i.v. adrenalin hydrochloride); type: in vivo, Wistar strain male rats; conditions: relative to prazosin
Protocol: Wistar strain male rats, weighing 250-300 g., were used in this experiment. The rat was anesthetized with pentobarbital sodium and fitted in the right femoral artery with a cannula for determination of blood pressure and in the left femoral vein with another cannula for intravenous injection, the former cannula being connected to an electronic recording system to measure a blood pressure.
Adrenergic α-receptor blocking effect was determined upon whether a hypertensive action with intravenous injection of adrenalin hydrochloride at 0.3 or 1 μg./kg. may be reserved by pretreatment with the test compound.

in vivo = type: in vivo; conditions: mouse, in vivo, po; mice
Protocol: as §1, §2

COc1cc2nc(N3CCN(C(=O)c4ccco4)CC3)nc(N)c2cc1OC [Prazosin, reference compound]
time of maximum antihypertensive effect from oral administration ([1]; SHR, p.o.): 1 h
antihypertensive effect, compound compared with prazosin ([1]; SHR, p.o., in words): approximately equal antihypertensive effect to that of the present quinazoline compound after 3 hours
Changes in blood pressure (BP) after oral administration ([1]; 0.3 mg./kg., 1 hr.): -34±5.6 mm.Hg.
Changes in heart rate (HR) after oral administration ([1]; 0.3 mg./kg., 1 hr.): 6.3±3.3 no/min.
Changes in blood pressure (BP) after oral administration ([1]; 0.3 mg./kg., 3 hrs.): -25±3.5 mm.Hg.
Changes in heart rate (HR) after oral administration ([1]; 0.3 mg./kg., 3 hrs.): 5.3±4.6 no/min.
Changes in blood pressure (BP) after oral administration ([1]; 0.3 mg./kg., 6 hrs.): -27±4.4 mm.Hg.
Changes in heart rate (HR) after oral administration ([1]; 0.3 mg./kg., 6 hrs.): 3.2±3.0 no/min.
Changes in blood pressure (BP) after oral administration ([1]; 0.3 mg./kg., 24 hrs.): -1±4.3 mm.Hg.
Changes in heart rate (HR) after oral administration ([1]; 0.3 mg./kg., 24 hrs.): 4.3±4.9 no/min.
Changes in blood pressure (BP) after oral administration ([1]; 1 mg./kg., 1 hr.): -46±2.9 mm.Hg.
Changes in heart rate (HR) after oral administration ([1]; 1 mg./kg., 1 hr.): 7.0±4.4 no/min.
Changes in heart rate (HR) after oral administration ([1]; 1 mg./kg., 3 hrs.): 1.5±2.8 no/min.
Changes in blood pressure (BP) after oral administration ([1]; 1 mg./kg., 6 hrs.): -31±2.9 mm.Hg.
Changes in heart rate (HR) after oral administration ([1]; 1 mg./kg., 6 hrs.): -9.8±6.1 no/min.
Changes in blood pressure (BP) after oral administration ([1]; 1 mg./kg., 24 hrs.): -6±1.9 mm.Hg.
Changes in heart rate (HR) after oral administration ([1]; 1 mg./kg., 24 hrs.): -3.9±2.8 no/min.
Changes in blood pressure (BP) after oral administration ([1]; 3 mg./kg., 1 hr.): -50±6.5 mm.Hg.
Changes in heart rate (HR) after oral administration ([1]; 3 mg./kg., 1 hr.): 12.7±7.8 no/min.
Changes in blood pressure (BP) after oral administration ([1]; 3 mg./kg., 3 hrs.): -31±5.8 mm.Hg.
Changes in heart rate (HR) after oral administration ([1]; 3 mg./kg., 3 hrs.): 17.8±7.7 no/min.
Changes in blood pressure (BP) after oral administration ([1]; 3 mg./kg., 6 hrs.): -34±6.2 mm.Hg.
Changes in heart rate (HR) after oral administration ([1]; 3 mg./kg., 6 hrs.): 9.4±8.3 no/min.
Changes in blood pressure (BP) after oral administration ([1]; 3 mg./kg., 24 hrs.): -3± 5.8 mm.Hg.
Changes in heart rate (HR) after oral administration ([1]; 3 mg./kg., 24 hrs.): 26.8±8.3 no/min.
Changes in average blood pressures after administration ([1]; SHR, p.o., 1 mg./kg., 1 hr.): -46 mmHg
Changes in average blood pressures after administration ([1]; SHR, p.o., 1 mg./kg., 3 hrs.): -37 mmHg
Changes in average blood pressures after administration ([1]; SHR, p.o., 1 mg./kg., 6 hrs.): -31 mmHg
Changes in average blood pressures after administration ([1]; SHR, p.o., 1 mg./kg., 24 hrs.): -6 mmHg
Changes in average blood pressures after administration ([1]; SHR, p.o., 3 mg./kg., 1 hr.): -50 mmHg
Changes in average blood pressures after administration ([1]; SHR, p.o., 3 mg./kg., 3 hrs.): -31 mmHg
Changes in average blood pressures after administration ([1]; SHR, p.o., 3 mg./kg., 6 hrs.): -34 mmHg
Changes in average blood pressures after administration ([1]; SHR, p.o., 3 mg./kg., 24 hrs.): -3 mmHg
No. of deceased animal (ICR strain male mice; p.o., 1,250 mg./kg.): 0
No. of deceased animal (ICR strain male mice; p.o., 2,500 mg./kg.): 0
No. of deceased animal (ICR strain male mice; p.o., 5,000 mg./kg.): 0

CCOc1ccc(C=CC(=O)N2CCN(c3nc(N)c4cc(OC)c(OC)cc4n3)CC2)cc1 [Compound No. 10, 2-[4-(4-Ethoxycinnamoyl)-piperazine-1-yl]-4-amino-6,7-dimethoxyquinazoline]
Change in blood pressure after 3 hrs. from administration ([1]; SHR, p.o., 1 mg./kg., 3 hrs.): -19 mmHg
Change in blood pressure after 3 hrs. from administration ([1]; SHR, p.o., 10 mg./kg., 3 hrs.): -53 mmHg
α-receptor blocking action as compared with the action of prazosin (Adrenergic α-receptor): 1/100

COc1ccc(C=CC(=O)N2CCN(c3nc(N)c4cc(OC)c(OC)cc4n3)CC2)cc1 [Compound No. 8, 2-[4-(4-Methoxycinnamoyl)-piperazin-1-yl]-4-amino-6,7-dimethoxyquinazoline]
Change in blood pressure after 3 hrs. from administration ([1]; SHR, p.o., 10 mg./kg., 3 hrs.): -25 mmHg
α-receptor blocking action as compared with the action of prazosin (Adrenergic α-receptor): 1/100

COc1cc2nc(N3CCN(C(=O)C=Cc4ccco4)CC3)nc(N)c2cc1OC [compound 28, 2-{4-[3-(Furan-2-yl)-acryloyl]-piperazin-1-yl}-4-amino-6,7-dimethoxyquinazoline]
Changes in average blood pressures after administration ([1]; SHR, p.o., 1 mg./kg., 1 hr.): -51 mmHg
Changes in average blood pressures after administration ([1]; SHR, p.o., 1 mg./kg., 3 hrs.): -31 mmHg
Changes in average blood pressures after administration ([1]; SHR, p.o., 1 mg./kg., 6 hrs.): -38 mmHg
Changes in average blood pressures after administration ([1]; SHR, p.o., 1 mg./kg., 24 hrs.): -11 mmHg
Changes in average blood pressures after administration ([1]; SHR, p.o., 3 mg./kg., 1 hr.): -74 mmHg
Changes in average blood pressures after administration ([1]; SHR, p.o., 3 mg./kg., 3 hrs.): -38 mmHg
Changes in average blood pressures after administration ([1]; SHR, p.o., 3 mg./kg., 6 hrs.): -43 mmHg
Changes in average blood pressures after administration ([1]; SHR, p.o., 3 mg./kg., 24 hrs.): -15 mmHg
Body weight gain after 7 days (ICR strain male mice; p.o., 1,250 mg./kg.): +2.6 g.
No. of deceased animal (ICR strain male mice; p.o., 1,250 mg./kg.): 0
Body weight gain after 7 days (ICR strain male mice; p.o., 2,500 mg./kg.): +3.0 g.
No. of deceased animal (ICR strain male mice; p.o., 2,500 mg./kg.): 0
Body weight gain after 7 days (ICR strain male mice; p.o., 5,000 mg./kg.): +0.2 g.
No. of deceased animal (ICR strain male mice; p.o., 5,000 mg./kg.): 0
LD50 at 168 h (in vivo): > 5000 mg/kg

COc1cc2nc(N3CCN(C(=O)C=Cc4ccc5c(c4)OCO5)CC3)nc(N)c2cc1OC [Compound No. 16, 2-[4-(3,4-Methylenedioxycinnamoyl)-piperazin-1-yl]-4-amino-6,7-dimethoxyquinazoline]
Change in blood pressure after 3 hrs. from administration ([1]; SHR, p.o., 10 mg./kg., 3 hrs.): -13 mmHg
α-receptor blocking action as compared with the action of prazosin (Adrenergic α-receptor): 1/100

COc1cc2nc(N3CCCN(C(=O)C=Cc4cccs4)CC3)nc(N)c2cc1OC [compound 47, 2-{4-[3-(Thiophen-2-yl)-acryloyl]-homopiperazin-1-yl}-4-amino-6,7-dimethoxyquinazoline]
Changes in average blood pressures after administration ([1]; SHR, p.o., 3 mg./kg., 1 hr.): -22 mmHg
Changes in average blood pressures after administration ([1]; SHR, p.o., 3 mg./kg., 3 hrs.): -13 mmHg
Changes in average blood pressures after administration ([1]; SHR, p.o., 3 mg./kg., 6 hrs.): -17 mmHg
Changes in average blood pressures after administration ([1]; SHR, p.o., 3 mg./kg., 24 hrs.): 2 mmHg

COc1cc2nc(N3CCN(C(=O)C=Cc4ccsc4)CC3)nc(N)c2cc1OC [compound 36, 2-{4-[3-(Thiophen-3-yl)-acryloyl]-piperazin-1-yl}-4-amino-6,7-dimethoxyquinazoline]
Changes in average blood pressures after administration ([1]; SHR, p.o., 1 mg./kg., 1 hr.): -18 mmHg
Changes in average blood pressures after administration ([1]; SHR, p.o., 1 mg./kg., 3 hrs.): -20 mmHg
Changes in average blood pressures after administration ([1]; SHR, p.o., 1 mg./kg., 6 hrs.): -27 mmHg
Changes in average blood pressures after administration ([1]; SHR, p.o., 1 mg./kg., 24 hrs.): 3 mmHg
Changes in average blood pressures after administration ([1]; SHR, p.o., 3 mg./kg., 1 hr.): -47 mmHg
Changes in average blood pressures after administration ([1]; SHR, p.o., 3 mg./kg., 3 hrs.): -30 mmHg
Changes in average blood pressures after administration ([1]; SHR, p.o., 3 mg./kg., 6 hrs.): -35 mmHg
Changes in average blood pressures after administration ([1]; SHR, p.o., 3 mg./kg., 24 hrs.): 0 mmHg

COc1cc2nc(N3CCN(C(=O)C=Cc4ccoc4)CC3)nc(N)c2cc1OC [compound 29, 2-{4-[3-(Furan-3-yl)-acryloyl]-piperazin-1-yl]-4-amino-6,7-dimethoxyquinazoline]
Changes in average blood pressures after administration ([1]; SHR, p.o., 1 mg./kg., 1 hr.): -25 mmHg
Changes in average blood pressures after administration ([1]; SHR, p.o., 1 mg./kg., 3 hrs.): -28 mmHg
Changes in average blood pressures after administration ([1]; SHR, p.o., 1 mg./kg., 6 hrs.): -37 mmHg
Changes in average blood pressures after administration ([1]; SHR, p.o., 1 mg./kg., 24 hrs.): -17 mmHg

COc1cc(C=CC(=O)N2CCN(c3nc(N)c4cc(OC)c(OC)cc4n3)CC2)cc(OC)c1 [compound 13, 2-[4-(3,5-Dimethoxycinnamoyl)-piperazin-1-yl]-4-amino-6,7-dimethoxyquinazoline]
Change in blood pressure after 3 hrs. from administration ([1]; SHR, p.o., 10 mg./kg., 3 hrs.): -12 mmHg
